Reference: US20250154143A1, “PRODRUGS FOR USE IN THE TREATMENT OF TISSUE DAMAGE” (UCL BUSINESS LTD, priority 2021, published 2025)
≈ marks a conversion by molar mass, not a printed value. Counter-ions that a name gives are not always drawn.

Experiments:
[1] = Thermodynamic solubility in PBS, FaSSIF and SGF; format: physicochemical; conditions: thermodynamic from solid, room temperature
Protocol: A known quantity of the Examples and control compounds were weighed into a suitable vessel (whatman miniuniprep vials) and a known volume of the required media was added (e.g. Simulated Gastric Fluid pH 1.2 [SGF], Simulated Fasted State Intestinal Fluid pH 6.5 [FaSSIF] or Phosphate Buffered Saline pH 7.4 [PBS]). The samples were subjected to vortex mixing for 2 minutes followed by agitation on a shaker for 24 hours at room temperature at 800 rpm. The samples were then centrifuged for 20 minutes at 4000 rpm, the miniuniprep vials compressed and the filtrates analysed by HPLC (Waters Xbridge C18 4.6×100 mm, mobile phase A: 0.1% TFA in water, mobile phase B: 0.1% TFA in acetonitrile).

human CRP = target: T1, human CRP (Homo sapiens, UniProt P02741); conditions: rat acute myocardial infarction model, rats receiving human CRP; cited from earlier work
T1 construct: The final concentrations were 0.73 μM native pentameric CRP; from tissue
T1 sequence (P02741 19-224): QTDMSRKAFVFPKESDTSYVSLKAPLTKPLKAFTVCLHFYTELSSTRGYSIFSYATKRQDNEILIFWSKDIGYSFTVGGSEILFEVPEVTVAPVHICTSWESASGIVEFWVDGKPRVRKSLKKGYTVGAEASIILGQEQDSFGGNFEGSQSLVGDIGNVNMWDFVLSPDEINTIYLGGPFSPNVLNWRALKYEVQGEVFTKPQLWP

[2] = Stability in FaSSIF, SGF and PBS; format: physicochemical; conditions: 37° C.
Protocol: 10 μL of a 10 mM stock solution of the Examples were dissolved in 490 μL DMSO to afford […] working solution
Dissolve 0.04 g NaCl and 0.064 g pepsin in 0.14 mL HCl and add sufficient water to 20 mL volume. The pH of the test solution was 1.20±0.05.
0.056% (w/v) lecithin, 0.161% (w/v) sodium taurocholate, 0.39% (w/v) monobasic potassium phosphate, 0.77% (w/v) potassium chloride, deionized H2O. The pH of the test solution was 6.5±0.05.
30 mL of 10×PBS (pH7.4) was added into a 50 mL flask and diluted with water. The solution was mixed well and adjusted to pH 7.4 with 1N HCl.
Protocol for Determining Stability 2 μL of the 200 μL working solution of the Examples was added into 96-deep-well plates for T0, T60, T120, T360 and T1440 timepoints. Duplicates were prepared.
Stability studies were commenced by the addition of 198 μL of the required media (e.g. Simulated Gastric Fluid pH 1.2 [SGF], Simulated Fasted State Intestinal Fluid pH 6.5 [FaSSIF]) and Phosphate Buffered Saline pH 7.4 [PBS]) to each well except T0. The samples were incubated at 37° C. at 600 rpm for the appointed time. The samples at the corresponding timepoint were removed and immediately mixed with 400 μL of 0.3% FA in MeCN containing 200 ng/mL tolbutamide and labetalol (internal standard). 200 μL of suspension was removed and mixed with 400 μL of 0.3% FA in cold MeCN containing 200 ng/mL tolbutamide and labetalol. The samples were centrifuged at 4000 rpm at 4° C. for 20 minutes. 60 μL of the supernatant was removed and mixed with 180 μL purified water and thoroughly mixed and analysed by LCMS (Shimadzu LC 30-AD, ACQUITY UPLC HSS T3 1.8 um 2.1*50 mm Part No. 186003538, with mobile phase A: 0.1% formic acid in water, mobile phase B: 0.1% formic acid in MeCN. Formation of parent was also monitored as a metabolite.
Samples were analysed by Mass Spectrometry QTRAP 6500+

[3] = Phosphate Buffered Saline (PBS), aqueous buffer, PBS pH 7.4, 24 hour timepoint
[4] = Simulated Fasted State Intestinal Fluid (FaSSIF), FaSSIF pH 6.5, 24 hour timepoint
[5] = Simulated Gastric Fluid (SGF), simulated gastric fluid, SGF pH 1.2, 24 hour timepoint

SMILES	solubility thermodynamic at 24 h [1, 3] [µg/mL]	solubility thermodynamic at 24 h [1, 4] [µg/mL]	solubility thermodynamic at 24 h [1, 5] [µg/mL]	Effect on adverse effects of human CRP (human CRP)	FaSSIF (pH 6.5) % remaining ([2]; FaSSIF pH 6.5, 6 hr) [%]	FaSSIF (pH 6.5) % remaining ([2]; FaSSIF pH 6.5, 24 h) [%]	PBS (pH 7.4) % remaining ([2]; PBS pH 7.4, 6 h) [%]	PBS (pH 7.4) % remaining ([2]; PBS pH 7.4, 24 h) [%]	SGF (pH 1.2) % remaining ([2]; SGF pH 1.2, 6 h) [%]	SGF (pH 1.2) % remaining ([2]; SGF pH 1.2, 24 h) [%]
O=C(N[C@@H](C(=O)O)C1CN2CCC1CC2)c1ccc(C(=O)N[C@@H](C(=O)O)C2CN3CCC2CC3)cc1 (stereo partly drawn) [APL-2191.2HCl, (R,2R,2′R)-2,2′-(terephthaloylbis(azanediyl))bis(2-((R)-quinuclidin-3-yl)acetic acid) bis hydrochloride salt]	1690	2510	4560							
C[N+](C)(C)CCOP(=O)([O-])OCCCCCCOP(=O)([O-])OCC[N+](C)(C)C [BPC6, bis(phosphocholine)hexane]				completely abrogate the adverse effects of human CRP						
C[N+](C)(C)CCOP(=O)(O)OCCCCCCCCOP(=O)(O)OCC[N+](C)(C)C [BPC8, bis(phosphocholine)octane]				completely abrogate the adverse effects of human CRP						
COC(=O)[C@H](NC(=O)c1ccc(C(=O)N[C@@H](C(=O)OC)C2CN3CCC2CC3)cc1)C1CN2CCC1CC2 (stereo partly drawn) [Example 1, (R,2R,2′R)-2,2′-(terephthaloylbis(azanediyl))bis(2-((R)-quinuclidin-3-yl)acetic acid) bis methyl ester]	1220 (≈ 2.31 mM)	4690 (≈ 8.9 mM)	5930 (≈ 11.3 mM)		98.3	113.3	84.07	55.89	101.2	92.6
CCOC(=O)[C@H](NC(=O)c1ccc(C(=O)N[C@@H](C(=O)OCC)C2CN3CCC2CC3)cc1)C1CN2CCC1CC2 (stereo partly drawn) [Example 12, (R,2R,2′R)-2,2′-(terephthaloylbis(azanediyl))bis(2-((R)-quinuclidin-3-yl)acetic acid) bis ethyl ester]	5520 (≈ 9.94 mM)	4540 (≈ 8.18 mM)	4000 (≈ 7.22 mM)		105.0	95.2	84.33	87.14	101.2	92.3
CC(C)OC(=O)[C@H](NC(=O)c1ccc(C(=O)N[C@@H](C(=O)OC(C)C)C2CN3CCC2CC3)cc1)C1CN2CCC1CC2 (stereo partly drawn) [Example 13, (R,2R,2′R)-2,2′-(terephthaloylbis(azanediyl))bis(2-((R)-quinuclidin-3-yl)acetic acid) bis isopropyl ester]	4560 (≈ 7.83 mM)	5200 (≈ 8.93 mM)	5140 (≈ 8.82 mM)		99.7	110.4	103.43	104.61	107.2	100.0
